Experimental data as given in PMC8824275, “Gastrointestinal Stability and Cytotoxicity of Bacteriocins From Gram-Positive and Gram-Negative Bacteria: A Comparative in vitro Study” (Frontiers in Microbiology, 2022).
Values after ≈ are worked out from the molar mass of the structure shown. Where two headings read alike, the source gives them in different places.

Experiments:
L. ivanovii HPB 28 = format: cell-based, Listeria ivanovii; conditions: for Total activity: broth microdilution
From the text: Microcin J25 was produced by Escherichia coli MC4100 carrying the plasmid PTUC 202 ([Solbiati et al., 1999]). For the antibacterial activity of pure compounds and digestion mixture, Listeria ivanovii HPB28 (Canada Health Protection Branch) was used as indicator strain for nisin and pediocin PA-1, while Staphylococcus aureus ATCC 6538 (ATCC) and Salmonella enterica subsp. enterica serovar Newport ATCC 6962 (later referred to as S. Newport, ATCC) were used as indicator strains for bactofencin A (M14L, M18L) and microcin J25, respectively. L. ivanovii HPB28 and S. aureus were cultured in Tryptic Soy (Difco Laboratories, Spark, MD, United States) supplemented with 0.6% yeast extract (TSBYE), at 30 and 37°C, respectively. S. Newport was cultured at 37°C overnight in Luria-Bertani (LB) (Difco Laboratories, Spark, MD, United States). All strains were maintained at –80°C as stock cultures in their corresponding culture media supplemented with 20% glycerol, and propagated twice at 24 h intervals before use.
Quantitative determination of inhibitory activity of bacteriocins was carried out using the broth microdilution method as described by [Ben Said et al. (2020)]. Two-fold serial dilutions of bacteriocins (125 μL) were prepared in an appropriate medium in a clear 96-well flat-bottom microtiter plate. Indicator strains were diluted to 10^5 CFU/mL, from which 50 μL were added to each well. The microtiter plates were incubated for 24 h under appropriate conditions, and optical densities were recorded at 595 nm (Infinite M200, Tecan, Switzerland). Control wells contained untreated culture and appropriate medium (blanks). The number of inhibition wells was noted and inhibition activities were calculated in μg/mL.

Caco-2 cells = experiment: LDH release assay (membrane integrity); format: cell-based, human; conditions: Caco-2, CytoTox-ONE LDH release, 0.4 to 400 μg/mL, 24 h (method: 48 h), 37°C, mean of three experiments
Method: The human colonic adenocarcinoma (Caco-2) cells were purchased from ATCC. Cells were cultured in DMEM medium in a humidified atmosphere containing 5% CO2 at 37°C. For the LDH release assay, cells were seeded in 96 well flat bottom culture plates (1 × 10^4 cells/well). Caco-2 cells, which have been frequently used for permeability studies across the intestinal epithelium, were selected in this study for evaluating the cytotoxicity of bacteriocins and their interaction with intestinal epithelium during GI transit to determine their cytotoxicity.
The CytoTox-ONE™ cytotoxicity assay kit (Promega, United States) was used to measure the LDH release. […] Lysis solution (Promega) was added in a 1:1 ratio to selected control wells to induce the maximal release of LDH and the plate was incubated for 5 min. […] Finally, stop solution was then added to each well, and absorbance was measured using a spectrophotometer (Tecan Spark 20M, Morrisville, NC, United States) at excitation/emission wavelengths of 560/590 nm. Each compound-treated value was blanked with the values of the control-treated cells and cytotoxicity was expressed as percentage of the maximal LDH release (lysis solution treated cells), calculated by the following formula: […]

C=C(NC(=O)[C@@H](NC(=O)[C@H](Cc1c[nH]cn1)NC(=O)[C@@H](NC(=O)[C@H](CO)NC(=O)[C@@H]1CS[C@@H](C)[C@H]2NC(=O)[C@H](C)NC(=O)[C@H](NC(=O)[C@H](CCCCN)NC(=O)[C@H](CCSC)NC(=O)[C@H](CC(N)=O)NC(=O)[C@@H]3CS[C@@H](C)[C@@H](NC(=O)[C@H](CCCCN)NC(=O)[C@@H]4CS[C@@H](C)[C@@H](NC(=O)[C@@H]5CSC[C@@H](NC(=O)/C(=C/C)NC(=O)[C@@H](N)[C@@H](C)CC)C(=O)N[C@@H]([C@@H](C)CC)C(=O)NC(=C)C(=O)N[C@@H](CC(C)C)C(=O)N5)C(=O)N5CCC[C@H]5C(=O)NCC(=O)N4)C(=O)NCC(=O)N[C@@H](C)C(=O)N[C@@H](CC(C)C)C(=O)N[C@@H](CCSC)C(=O)NCC(=O)N3)[C@H](C)SC[C@H](NC2=O)C(=O)N[C@@H](CC(N)=O)C(=O)N1)[C@@H](C)CC)C(C)C)C(=O)N[C@@H](CCCCN)C(=O)O [nisin Z]
Total activity (L. ivanovii HPB 28; after gastric conditions (SGF, pepsin 2000 U/mL, lipase 60 U/mL, pH 3, 90 min, 37°C)): 3.12 AU/mL
Total activity (L. ivanovii HPB 28; after oral conditions (SSF, 2 min, 37°C)): 3.12 AU/mL
Total activity (L. ivanovii HPB 28; after small intestinal conditions (SIF, bile salt 10 mmol/L, pancreatin 100 U/mL, pH 7, 2 h, 37°C)): 200 AU/mL
MIC (L. ivanovii HPB 28; against L. ivanovii): 1.65 µg/mL (≈ 0.495 µM)
Total activity (L. ivanovii HPB 28; pure compound without GI digestion, 24 h, OD 595 nm): 3.12 AU/mL
Membrane integrity (LDH release) (Caco-2 cells): uncompromised
